Experimental data reported in the supplement of paper PMC4862054.

What was measured:
Conditions in all cases: incubation time: 72 h
BT-474 = assay: drug sensitivity score (DSS), CellTiter-Glo (DSS (AUC-based score)); higher = stronger drug effect (viability inhibition or cytotoxicity); extreme values may be limits of the assay
Summary of the method: (§1)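 Compound was dispensed into 384-well plates at 5 concentrations in 10-fold steps spanning a 10,000-fold range chosen for each compound, and 20 µl of breast cancer cell suspension was added before 72 h of incubation. CellTox Green fluorescence was read at 485/520 nm, followed by CellTiter-Glo luminescence after 10 min at room temperature. Values on each plate were normalised to 0.1 % DMSO and a positive kill control. The drug sensitivity score came from the area under the fitted dose-response curve.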

BT-549 [1] = assay: as above
Summary of the method: as §1

CAL-120 [2] = assay: as above
Summary of the method: as §1

CAL-148 = assay: as above
Summary of the method: as §1

CAL-51 = assay: as above
Summary of the method: as §1

CAL-85-1 [3] = assay: as above
Summary of the method: as §1

DU-4475 = assay: as above
Summary of the method: as §1

HCC1143 = assay: as above
Summary of the method: as §1

HCC1599 = assay: as above
Summary of the method: as §1

HCC1937 = assay: as above
Summary of the method: as §1

HDQ-P1 = assay: as above
Summary of the method: as §1

Hs578T = assay: as above
Summary of the method: as §1

MCF-10A = assay: as above
Summary of the method: as §1

MDA-MB-231 = assay: as above
Summary of the method: as §1

MDA-MB-436 [4] = assay: as above
Summary of the method: as §1

MDA-MB-453 = assay: as above
Summary of the method: as §1

MDA-MB-468 = assay: as above
Summary of the method: as §1

MFM-223 [5] = assay: as above
Summary of the method: as §1

SK-BR-3 = assay: as above
Summary of the method: as §1

BT-549 [6] = assay: drug sensitivity score (DSS), CellTox Green (DSS (AUC-based score)); higher = stronger drug effect (viability inhibition or cytotoxicity); extreme values may be limits of the assay
Summary of the method: as §1

CAL-120 [7] = assay: as above
Summary of the method: as §1

CAL-85-1 [8] = assay: as above
Summary of the method: as §1

MDA-MB-436 [9] = assay: as above
Summary of the method: as §1

MFM-223 [10] = assay: as above
Summary of the method: as §1

Row | SMILES | drug sensitivity score (BT-474) | drug sensitivity score (BT-549 [1]) | drug sensitivity score (CAL-120 [2]) | drug sensitivity score (CAL-148) | drug sensitivity score (CAL-51) | drug sensitivity score (CAL-85-1 [3]) | drug sensitivity score (DU-4475) | drug sensitivity score (HCC1143) | drug sensitivity score (HCC1599) | drug sensitivity score (HCC1937) | drug sensitivity score (HDQ-P1) | drug sensitivity score (Hs578T) | drug sensitivity score (MCF-10A) | drug sensitivity score (MDA-MB-231) | drug sensitivity score (MDA-MB-436 [4]) | drug sensitivity score (MDA-MB-453) | drug sensitivity score (MDA-MB-468) | drug sensitivity score (MFM-223 [5]) | drug sensitivity score (SK-BR-3) | drug sensitivity score (BT-549 [6]) | drug sensitivity score (CAL-120 [7]) | drug sensitivity score (CAL-85-1 [8]) | drug sensitivity score (MDA-MB-436 [9]) | drug sensitivity score (MFM-223 [10])
1 | O=[N+]([O-])c1ccc2c(c1)S(=O)(=O)C=C2 [Stattic] | 9.26 | 20.4 | 7.49 | 11.9 | 18.1 | 17.8 | 5.46 | 6.56 | 7.71 | 15.3 | 6.75 | 14 | 5.13 | 14.4 | 9.28 | 12.6 | 24.4 | 14.8 | 8.62 | 19.8 | 2.06 | 19.7 | 6.1 | 16.3
2 | CN(Cc1cnc2nc(N)nc(N)c2n1)c1ccc(C(=O)N[C@@H](CCC(=O)O)C(=O)O)cc1 [Methotrexate] | 7.54 | 0 | 17.3 | 0 | 16.2 | 9.24 | 0 | 0 | 1.47 | 30.2 | 23.1 | 2.72 | 0 | 7.21 | 3.7 | 0 | 0 | 0 | 0 | 0 | 0 | 0.579 | 2.33 | 0
3 | CC1(C)CCC(c2ccc(Cl)cc2)=C(CN2CCN(c3ccc(C(=O)NS(=O)(=O)c4ccc(N[C@H](CCN5CCOCC5)CSc5ccccc5)c(S(=O)(=O)C(F)(F)F)c4)cc3)CC2)C1 [Navitoclax] | 9.19 | 0.252 | 7.04 | 2 | 2.18 | 0.831 | 1.89 | 0 | 0 | 3.57 | 4.94 | 0 | 0 | 11.1 | 0 | 3.71 | 4.81 | 2.94 | 0 | 0 | 10.9 | 3.45 | 0 | 1.23
4 | C=CCN(/C=C1/C(=O)O[C@H](COC)[C@@]2(C)C1=C(O)C(=O)C1=C2[C@H](OC(C)=O)C[C@]2(C)C(=O)CC[C@@H]12)CC=C [Sonolisib] | 0 | 0.766 | 0 | 0 | 4.2 | 0 | 0 | 0 | 0 | 0 | 0 | 0 | 0 | 0 | 0 | 0 | 0 | 0 | 0 | 0 | 0 | 2.28 | 0 | 0
5 | O=C(O)CNC(=O)c1c(O)c2ccccc2n(Cc2ccccc2)c1=O [IOX-2] | 0 | 0.135 | 0 | 0 | 3.96 | 0 | 0 | 0 | 0 | 0 | 0 | 0 | 0 | 0 | 0 | 0 | 0 | 0 | 0 | 2.91 | 0 | 0 | 0 | 0
6 | CC1(COc2ccc3c(c2)ncn3-c2ccc3cccc(N4CCC(N)CC4)c3n2)COC1 [Crenolanib] | 4.44 | 7.22 | 0 | 4.01 | 6.45 | 4.49 | 4.23 | 0 | 0.696 | 0.864 | 3.33 | 4.07 | 3.64 | 4.35 | 4.37 | 3.06 | 3.61 | 0 | 4.21 | 4.07 | 0 | 6.6 | 18.5 | 0
7 | CCN(CC)CCCC(C)Nc1ccnc2cc(Cl)ccc12 (stereo not given) [Chloroquine] | 9.59 | 9.55 | 11.1 | 10.1 | 13.3 | 11 | 8.35 | 4.28 | 9.72 | 9.1 | 7.81 | 5.84 | 8.64 | 9.09 | 9.03 | 15.7 | 10.8 | 9.76 | 14.7 | 1.78 | 4.62 | 7.92 | 8.96 | 9.2
8 | CC[C@H](CO)Nc1nc(NCc2ccccc2)c2ncn(C(C)C)c2n1 [Seliciclib] | 0.844 | 1.15 | 0 | 0 | 2.74 | 0 | 0 | 0 | 0 | 0 | 0 | 0 | 0 | 0 | 0 | 0 | 0 | 0 | 0 | 0 | 0 | 0 | 0 | 1.03
9 | CCNC(=O)c1noc(-c2cc(C(C)C)c(O)cc2O)c1-c1ccc(CN2CCOCC2)cc1 [NVP-AUY922] | 13 | 14.1 | 9.4 | 12.5 | 15.7 | 14.1 | 17.8 | 11.2 | 3.99 | 13.8 | 17.4 | 11 | 16.2 | 13.3 | 14.8 | 12.4 | 21.8 | 14.9 | 16.7 | 0 | 0.256 | 9.49 | 0 | 0
10 | CNC(=O)c1ccccc1Sc1ccc2c(/C=C/c3ccccn3)n[nH]c2c1 [Axitinib] | 0 | 1.06 | 1.6 | 0 | 9.31 | 0 | 0 | 0 | 2.21 | 0 | 1.23 | 0 | 0 | 0 | 1.91 | 0 | 4.94 | 8.4 | 0 | 0 | 0 | 0 | 0 | 0
11 | CC(C)(C)c1nc(-c2cccc(NS(=O)(=O)c3c(F)cccc3F)c2F)c(-c2ccnc(N)n2)s1 [Dabrafenib] | 0 | 0 | 8.71 | 0 | 0 | 0 | 19 | 0 | 0 | 0 | 0 | 0.389 | 0 | 0 | 0 | 0 | 0 | 0 | 0 | 0 | 0 | 0 | 0 | 0
12 | Nc1ccn([C@@H]2O[C@H](CO)[C@@H](O)C2(F)F)c(=O)n1 [Gemcitabine] | 3.22 | 14.7 | 3.04 | 10.6 | 16.7 | 12.4 | 4.13 | 14.5 | 12.8 | 0 | 1.57 | 4.8 | 5.69 | 0 | 16.8 | 4.36 | 19.7 | 0 | 13.6 | 0 | 0 | 4.04 | 0 | 0
13 | C=CCn1c(=O)c2cnc(Nc3ccc(N4CCN(C)CC4)cc3)nc2n1-c1cccc(C(C)(C)O)n1 [MK1775] | 13.9 | 15.7 | 12.1 | 19.3 | 15.5 | 16.2 | 8.47 | 11.6 | 19.9 | 12.4 | 14.9 | 14.5 | 9.77 | 15.7 | 16.7 | 14.6 | 12.5 | 12.4 | 18.8 | 9.39 | 4.54 | 16.5 | 13.8 | 5.91
14 | CC(=O)[C@]1(O)Cc2c(O)c3c(c(O)c2[C@@H](O[C@H]2C[C@H](N)[C@H](O)[C@H](C)O2)C1)C(=O)c1ccccc1C3=O [Idarubicin] | 4.44 | 9.35 | 1.91 | 10.5 | 14.5 | 6.75 | 8.12 | 3.11 | 3.71 | 2.31 | 1.38 | 6.15 | 3.11 | 4.79 | 8.24 | 1.75 | 9.11 | 3.67 | 7.9 | 0 | 0 | 8.04 | 0 | 1.56
15 | CO[C@@H]1[C@H](N(C)C(=O)c2ccccc2)C[C@H]2O[C@]1(C)n1c3ccccc3c3c4c(c5c6ccccc6n2c5c31)C(=O)NC4 [Midostaurin] | 10.5 | 13.8 | 9.74 | 0 | 15.9 | 2.25 | 9.68 | 8.75 | 0 | 7.38 | 6.88 | 15.7 | 17 | 10.8 | 3.96 | 0 | 14.6 | 3.44 | 7.66 | 12.6 | 3.96 | 0 | 0 | 0
